Values of other authors as cited in patent US20120178700A1, “PEPTIDOMIMETIC MACROCYCLES” (Aileron Therapeutics, Inc., priority 2008, published 2012).
Each block holds one compound with its values, some of them ahead of it.

What was measured:
c-Myc/Max dimerization = c-Myc/Max dimerization (Homo sapiens, UniProt P01106); settings: for preference for inhibition of c-Myc/Max association over related transcription factors: in the presence of their DNA binding motif in vitro
[1] = test system: c-Myc-dependent oncogenic transformation; settings: versus transformation dependent on Jun

Sequence of c-Myc/Max dimerization (P01106 whole entry): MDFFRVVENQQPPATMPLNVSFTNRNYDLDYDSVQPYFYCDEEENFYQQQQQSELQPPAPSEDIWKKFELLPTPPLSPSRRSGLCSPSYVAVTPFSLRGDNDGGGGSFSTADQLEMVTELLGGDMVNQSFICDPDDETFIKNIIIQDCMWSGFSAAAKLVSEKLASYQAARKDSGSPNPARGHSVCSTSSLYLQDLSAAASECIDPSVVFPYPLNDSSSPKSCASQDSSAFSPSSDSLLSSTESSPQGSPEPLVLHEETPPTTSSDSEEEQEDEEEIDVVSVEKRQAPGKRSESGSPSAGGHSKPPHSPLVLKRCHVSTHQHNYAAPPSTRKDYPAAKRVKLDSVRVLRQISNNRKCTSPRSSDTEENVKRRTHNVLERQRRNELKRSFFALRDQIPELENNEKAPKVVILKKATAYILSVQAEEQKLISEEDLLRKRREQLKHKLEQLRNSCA

- c-Myc/Max dimerization (c-Myc/Max dimerization): without interfering
- inhibition of DNA binding of Myc family proteins (Myc family proteins): inhibit DNA binding
Structure (SMILES): CN(C)CCCNc1cc(O)c2c(c1O)C(=O)c1ccccc1C2=O [MYRA-A]

- preference for inhibition of c-Myc/Max association over related transcription factors (c-Myc/Max dimerization): show a preference
Structure (SMILES): COc1ccc(CNC(=O)c2cc3nc(-c4cccs4)cc(C(F)(F)F)n3n2)cc1 [Mycro1]

- preference for inhibition of c-Myc/Max association over related transcription factors (c-Myc/Max dimerization): show a preference
Structure (SMILES): O=C(NCc1cccs1)c1cc2nc(-c3cccs3)cc(C(F)(F)F)n2n1 [Mycro2]

Structure (SMILES): COc1ccc(CN(C(=O)c2ccccn2)C(C(=O)NC2CCCCC2)c2ccc3cc(OCC(=O)OC(C)(C)C)ccc3c2)cc1 (centres unmarked) [NY2267]
- inhibition of c-Myc-dependent oncogenic transformation [1]: inhibited c-Myc-dependent oncogenic transformation with preference over transformation dependent on Jun
